≈ marks a conversion by molar mass, not a printed value.
Columns and labels:
Streptococcus mutans [1] = test: Antibiofilm activity against Streptococcus mutans assessed as inhibition of biofilm formation; format: functional, organism-based; settings: for IC50: Streptococcus mutans
Streptococcus mutans [2] = test: Antibacterial activity against Streptococcus mutans; format: organism-based
Streptococcus mutans [3] = test: Antibiofilm activity against Streptococcus mutans assessed as inhibition of biofilm formation by measuring reduction in cell adherence at sub-MIC level relative to control; format: functional
[4] = Binding affinity to Streptococcus mutans GtfC
Streptococcus mutans [5] = test: Inhibition of Streptococcus mutans F-ATPase activity relative to control; settings: concentration not given here
Streptococcus mutans [6] = test: Antibiofilm activity against Streptococcus mutans assessed as inhibition of biofilm formation on hydroxyapatite surface at 5 ug/ml relative to control; format: functional
Streptococcus mutans [7] = test: Antibiofilm activity against Streptococcus mutans assessed as reduction in biomass at 0.63 ug/ml relative to control; format: functional
[8] = Inhibition of Streptococcus mutans VicK autophosphorylation activity
[9] = Inhibition of Streptococcus mutans CiaH autophosphorylation activity
[10] = Inhibition of Streptococcus mutans LiaS autophosphorylation activity
Streptococcus mutans [11] = test: Antibacterial activity against Streptococcus mutans assessed as inhibition of planktonic growth relative to control; format: organism-based
Streptococcus mutans [12] = test: Antibiofilm activity against 24 hrs-old biofilm of Streptococcus mutans assessed as reduction in cell viability relative to control; format: functional
Sortase A = target: T1, Sortase A (Streptococcus mutans, UniProt Q8CM62); test: Binding affinity to Streptococcus mutans Sortase A
T1 sequence (Q8CM62 whole entry): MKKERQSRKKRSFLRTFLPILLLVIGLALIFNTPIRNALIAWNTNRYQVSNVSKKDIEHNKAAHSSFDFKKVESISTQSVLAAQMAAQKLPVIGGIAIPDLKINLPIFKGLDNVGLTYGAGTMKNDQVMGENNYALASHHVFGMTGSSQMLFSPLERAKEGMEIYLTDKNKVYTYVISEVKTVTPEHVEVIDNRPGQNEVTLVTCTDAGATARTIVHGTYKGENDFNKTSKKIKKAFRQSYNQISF

Streptococcus mutans [13] = test: Antibiofilm activity against Streptococcus mutans assessed as inhibition of biofilm formation on using surface coated compound at 0.06 uM relative to control; format: functional
Streptococcus mutans [14] = test: Antibiofilm activity against Streptococcus mutans assessed as inhibition of biofilm formation at 200 ug/ml after 4 hrs by crystal violet staining based assay relative to control; format: functional
Streptococcus mutans [15] = test: Antibiofilm activity against Streptococcus mutans assessed as inhibition of biofilm formation at 200 ug/ml after 4 hrs by Congo red staining based assay relative to control; format: functional
Streptococcus mutans [16] = test: Antibiofilm activity against Streptococcus mutans assessed as reduction in cell viability at 50 ug/ml relative to control; format: functional
Streptococcus mutans [17] = test: Antibiofilm activity against 24 hrs-old biofilm of Streptococcus mutans assessed as reduction in cell viability at 5 ug/ml relative to control; format: functional
Streptococcus mutans [18] = test: Antibiofilm activity against 24 hrs-old biofilm of Streptococcus mutans assessed as reduction in cell viability at 10 ug/ml relative to control; format: functional
Streptococcus mutans [19] = test: Antibiofilm activity against Streptococcus mutans assessed as inhibition of biofilm formation by measuring drug level causing induction of micro-colony phenotype; format: functional
Streptococcus mutans [20] = test: Antibiofilm activity against Streptococcus mutans assessed as decrease in biofilm viability at 0.053 to 53 uM by LIVE/DEAD staining based assay relative to control; format: functional
Streptococcus mutans [21] = test: Antibiofilm activity against Streptococcus mutans assessed as inhibition of biofilm formation at 250 uM on saliva-coated glass slides relative to control; format: functional
[22] = Binding affinity to Streptococcus mutans GtfB
Streptococcus mutans [23] = test: Antibiofilm activity against Streptococcus mutans assessed as inhibition of biofilm formation at 12.5 ug/ml relative to control; format: functional

CCC[C@@H]1CCC[C@]2(CCC)C(=O)CCC[C@@H]12
MBIC50 (Streptococcus mutans [1]): 39 µg/mL | MIC (Streptococcus mutans [2]): 156.25 µg/mL | inhibition (INH) (Streptococcus mutans [3]): 50%

Oc1cc(O)cc(/C=C/c2ccc(O)c(O)c2)c1 [PICEATANNOL]
Kd [4]: 14.6 µM | IC50 (Streptococcus mutans [1]): 52 µM

O=C(O[C@@H]1Cc2c(O)cc(O)cc2O[C@@H]1c1cc(O)c(O)c(O)c1)c1cc(O)c(O)c(O)c1 [EPIGALOCATECHIN GALLATE]
MBIC90 (Streptococcus mutans [1]): 15.6 µg/mL | MIC (Streptococcus mutans [2]): 31.25 µg/mL | inhibition (Streptococcus mutans [5]): 50%

Cc1cc(O)c2c(c1)C(=O)c1cc(O)cc(O)c1C2=O [EMODIN]
inhibition at 5 µg/mL (Streptococcus mutans [6]): 90%

CCC(C)C1(O)C(C)C(=O)c2c(c(OC)c3ccc(-c4ccc5c(Cl)c6c(c(O)c5c4O)C(=O)C(C)C(O)(C(C)C)C6/C(=C\C(=O)O)OC)c(O)c3c2O)C1/C(C)=C\C(=O)O (stereo not given)
inhibition at 0.63 µg/mL (Streptococcus mutans [7]): 60% | IC50 [8]: 2.53 µg/mL (≈ 2.94 µM) | IC50 [9]: 4.29 µg/mL (≈ 4.98 µM) | IC50 [10]: 4.96 µg/mL (≈ 5.76 µM)

CCCCCCCCCCCCCCCc1c[nH]c(N)n1.Cl
IC50 (Streptococcus mutans [1]): 0.94 µM | growth inhibition (GI) (Streptococcus mutans [11]): < 13%

O=C1C=C(Br)/C(=C/Br)O1
inhibition (INH) (Streptococcus mutans [12]): 60%

O=c1c(O)c(-c2ccc(O)cc2O)oc2cc(O)cc(O)c12 [MORIN]
IC50 (Sortase A): 27.2 µM

O=C1C=C/C(=C\Br)O1
inhibition at 0.06 µM (Streptococcus mutans [13]): 63%

CCCCCCCCCCCCCCCCCC(=O)Oc1cc(C(=O)O[C@@H]2Cc3c(O)cc(O)cc3O[C@@H]2c2cc(OC(=O)CCCCCCCCCCCCCCCCC)c(O)c(OC(=O)CCCCCCCCCCCCCCCCC)c2)cc(OC(=O)CCCCCCCCCCCCCCCCC)c1O
inhibition at 200 µg/mL (Streptococcus mutans [14]): 100% | inhibition at 200 µg/mL (Streptococcus mutans [15]): 100%

C[C@H]1/C=C/[C@H]2OC(C)(C)O[C@H]2C(=O)O[C@H](c2cccc(CCCCC(=O)O)c2)[C@@H](C)CCC1
MBIC50 (Streptococcus mutans [1]): 63 µM

Cc1cccc(N/C=C2/C=C(c3ccc(Cl)cc3)OC2=O)n1
inhibition at 50 µg/mL (Streptococcus mutans [16]): 75%

COc1ccc(CCNc2nc3ccccc3nc2NCCc2ccc(OC)cc2)cc1
inhibition at 5 µg/mL (Streptococcus mutans [17]): 46% | inhibition at 10 µg/mL (Streptococcus mutans [18]): 79%

C=CCc1ccc(O)c(OC)c1 [EUGENOL]
INH (Streptococcus mutans [19]): 0.3125 µg/mL

CO[C@H](CC(=O)O)[C@@H](C)C(=O)[C@H](C)/C=C(\C)[C@H]1OC(=O)[C@H](O)[C@H](O)/C=C/[C@H](C)CCC[C@@H]1C
inhibition (INH) (Streptococcus mutans [20]): 55 - 65%

O=C(/C=C/c1ccccc1)c1ccccc1 [CHALCONE]
IC50 (Sortase A): 5 µM | inhibition at 250 µM (Streptococcus mutans [21]): 90%

COc1cc(/C=C/C(=O)CC(=O)/C=C/c2ccc(O)c(OC)c2)ccc1O [CURCUMIN]
IC50 (Sortase A): 10.2 µM | MIC (Streptococcus mutans [2]): 125 µM

Oc1ccc(/C=C/c2cc(O)cc(O)c2)cc1 [RESVERATROL]
Kd [22]: 144 µM | Kd [4]: 510 µM

NC(=O)c1ccccc1NC(=O)c1cc2cc([N+](=O)[O-])ccc2s1
Kd [22]: 3.7 µM | Kd [4]: 0.0469 µM | inhibition at 12.5 µg/mL (Streptococcus mutans [23]): 85%

Reference: ChEMBL document CHEMBL4354780, “Targeting S. mutans biofilms: a perspective on preventing dental caries” (Medchemcomm, 2019)
